# Measurements from ChEMBL document CHEMBL5214922, “Melphalan: Recent insights on synthetic, analytical and medicinal aspects” (Eur J Med Chem, 2022).
# Non-standard residues stand in square brackets, D forms with d. Residues, ends and D or L forms follow the SMILES beside them. ξ: configuration not given here. *: point of attachment. ξPhe(4-N(CH2CH2Cl)2) = NC(Cc1ccc(N(CCCl)CCCl)cc1)C(=O)O; X1 = O=P(O)(O)C(CN*)P(=O)(O)O
# What was measured:
# MCF7 [1] = assay: Cytotoxicity against human MCF7 cells assessed as cell growth inhibition incubated for 24 hrs by MTT assay; assay type: functional, cell-based; details: MCF7, 24 h
# SK-OV-3 = assay: Cytotoxicity against human SK-OV-3 cells assessed as inhibition of cell proliferation incubated for 24 hrs by MTT assay; assay type: functional, cell-based; details: SK-OV-3, 24 h
# MCF7 [2] = assay: Cytotoxicity against human MCF7 cells assessed as cell growth inhibition incubated for 48 hrs by AlamarBlue assay; assay type: functional, cell-based; details: MCF7, 48 h
# [3] = Biodistribution in mouse CCRF S-180 tumor cells xenografted in ICR mouse measured after 240 mins; assay type: ADME, organism-based; details: read-out: Drug uptake
# HT-29 = assay: Cytotoxicity against human HT-29 cells assessed as cell growth inhibition measured after 24 hrs by MTT assay; assay type: functional, cell-based; details: HT-29, 24 h
# [4] = Plasma protein binding in human by ultrafiltration method; assay type: ADME; details: read-out: PPB (converted)
# SAOS-2 [5] = assay: Cytotoxicity against human SAOS-2 cells assessed as cell growth inhibition; assay type: functional, cell-based
# U2OS = assay: Cytotoxicity against human U2OS cells assessed as cell growth inhibition; assay type: functional, cell-based
# [6] = Plasma protein binding in human; assay type: ADME
# MDA-MB-231 [7] = assay: Cytotoxicity against human MDA-MB-231 cells assessed as reduction in cell viability at 15 uM incubated for 24 hrs by MTT assay relative to control; assay type: functional
# [8] = Plasma protein binding in human assessed as unbound fraction; assay type: ADME
# MC3T3-E1 = assay: Cytotoxicity against mouse MC3T3-E1 cells assessed as cell growth inhibition; assay type: functional, cell-based
# K562 = assay: Cytotoxicity against human K562 cells assessed as cell growth inhibition incubated for 24 hrs by MTT assay; assay type: functional, cell-based; details: K562, 24 h
# SAOS-2 [9] = assay: Cytotoxicity against human SAOS-2 cells assessed as cell growth inhibition incubated for 72 hrs by resazurin reduction method; assay type: functional, cell-based; details: SAOS-2, 72 h
# H-EMC-SS = assay: Cytotoxicity against human H-EMC-SS cells assessed as cell growth inhibition incubated for 72 hrs by resazurin reduction method; assay type: functional, cell-based
# [10] = target: 72 kDa type IV collagenase (Homo sapiens, UniProt P08253); assay: Prodrug conversion assessed as MMP-2 (unknown origin)-mediated drug release by measuring half life by HPLC analysis; assay type: ADME
# [11] = Prodrug conversion assessed as drug excretion measured after 6 days by HPLC analysis; assay type: ADME; details: 144 h; time 6 day
# [12] = Cytotoxicity against CHO cells assessed as cell growth inhibition incubated for 48 hrs by AlamarBlue assay; assay type: toxicity, cell-based, Cricetulus griseus; details: Chinese hamster
# Lymphoma cell line [13] = assay: Cytotoxicity against patient-derived human lymphoma cells assessed as cell growth inhibition incubated for 72 hrs by FMCA assay; assay type: functional, cell-based
# Lymphoma cell line [14] = assay: Potency index, ratio of Melphalan IC50 to test compound IC50 for cytotoxicity against patient-derived human lymphoma cells assessed as cell growth inhibition incubated for 72 hrs by FMCA assay; assay type: functional
# MDA-MB-231 [15] = assay: Inhibition of DNA synthesis in human MDA-MB-231 cells at 15 uM incubated upto 72 hrs by [3H]thymidine incorporation assay relative to control; assay type: functional
# [16] = Biodistribution in mouse CCRF S-180 tumor cells xenografted in ICR mouse measured after 120 mins; assay type: ADME, organism-based; details: read-out: Drug uptake
# [17] = Retention time of the compound by HPLC analysis; assay type: physicochemical
# 72 kDa type IV collagenase, sequence (P08253 whole entry): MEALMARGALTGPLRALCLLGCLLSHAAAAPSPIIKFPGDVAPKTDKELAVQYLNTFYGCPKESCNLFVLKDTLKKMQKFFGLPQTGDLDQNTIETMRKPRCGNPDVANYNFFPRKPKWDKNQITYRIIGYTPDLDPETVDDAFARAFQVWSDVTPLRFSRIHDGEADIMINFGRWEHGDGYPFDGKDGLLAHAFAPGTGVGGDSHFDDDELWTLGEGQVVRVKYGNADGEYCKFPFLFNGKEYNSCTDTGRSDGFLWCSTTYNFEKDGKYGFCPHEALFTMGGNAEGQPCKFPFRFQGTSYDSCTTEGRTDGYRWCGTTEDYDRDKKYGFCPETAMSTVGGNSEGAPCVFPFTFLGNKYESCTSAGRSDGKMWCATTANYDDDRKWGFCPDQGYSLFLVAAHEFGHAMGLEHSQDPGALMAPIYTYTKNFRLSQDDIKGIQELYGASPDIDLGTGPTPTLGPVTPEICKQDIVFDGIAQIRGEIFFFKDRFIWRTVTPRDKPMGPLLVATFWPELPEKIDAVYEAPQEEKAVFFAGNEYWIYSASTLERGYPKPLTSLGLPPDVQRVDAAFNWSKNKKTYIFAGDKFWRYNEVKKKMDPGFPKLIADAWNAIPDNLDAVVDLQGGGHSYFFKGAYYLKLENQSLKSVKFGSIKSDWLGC
smiles,measurement,setting,value
COC(=O)C(Cc1ccc(N(CCCl)CCCl)cc1)NC(=O)c1ccc(-c2ccc(C(=N)NC(C)C)cc2)o1 (stereo not drawn),IC50,MCF7 [1],23 µM
NC1=NC2N=CC(CNc3ccc(C(=O)NCC(CCC(=O)NCC(=O)NCC(=O)NC(Cc4ccc(N(CCCl)CCCl)cc4)C(=O)O)C(=O)NCC(=O)NCC(=O)NC(Cc4ccccc4)C(=O)O)cc3)N=C2C(=O)N1 (stereo not drawn),IC50,SK-OV-3,4.1 µg/mL
Nc1ccn([C@@H]2O[C@H](CO)[C@@H](O)[C@@H]2O)c(=O)n1 [CYTARABINE],IC50,MCF7 [2],> 20 µM
C=C1C(=O)O[C@@H]2C3O[C@]3(C)CC/C=C(\C)CC[C@@H]12 (stereo partly drawn),IC50,MCF7 [2],> 20 µM
CN(C)c1ccc(/C=N\Nc2ccc(CN[C@@H](Cc3ccc(N(CCCl)CCCl)cc3)C(=O)O)cc2)cc1,tissue uptake at 4 h,[3],0.98 %ID/g
CCOC(=O)CNC(=O)[C@H](Cc1ccc(N(CCCl)CCCl)cc1)NC(=O)[C@@H](N)[C@@H](C)CC,IC50,HT-29,40 µM
N[C@@H](Cc1ccc(N(CCCl)CCCl)cc1)C(=O)O [MELPHALAN],fraction unbound,[4],0.31
same,IC50,MCF7 [1],77 µM
same,IC50,SAOS-2 [5],0.68 µM
same,IC50,U2OS,0.68 µM
same,PPB,[6],40 µg/mL
same,IC50,MCF7 [2],> 20 µM
same,inhibition at 15 µM,MDA-MB-231 [7],40%
same,Cp(f),[8],2500 ng/mL
same,IC50,MC3T3-E1,0.68 µM
same,IC50,K562,65.7 µM
C[N+](C)(C)CCCNC(=O)[C@@H](N)Cc1ccc(N(CCCl)CCCl)cc1,IC50,SAOS-2 [9],37.5 µM
same,IC50,H-EMC-SS,14 µM
CC(C)C[C@H](NC(=O)CNC(=O)[C@H](CC(C)C)NC(=O)[C@@H]1CCCN1C(=O)C(N)Cc1ccc(N(CCCl)CCCl)cc1)C(=O)N[C@@H](C)C(=O)NCC(=O)NCC(P(=O)(O)O)P(=O)(O)O (stereo partly drawn) (H-[ξPhe(4-N(CH2CH2Cl)2)]PLGLAG-X1),t1/2,[10],1.25 h
same,IC50,SAOS-2 [5],0.79 µM
same,IC50,U2OS,0.79 µM
same,Drug excretion,[11],75%
same,IC50,MC3T3-E1,0.79 µM
C/C1=C\CC[C@@]2(C)O[C@H]2[C@H]2OC(=O)C(CNc3ccn(C4OC(CO)[C@H](O)[C@@H]4O)c(=O)n3)[C@@H]2CC1 (stereo partly drawn),IC50 at 48 h,[12],1.74 µM
CC1(C)CC(NC(=O)C(N)Cc2ccc(N(CCCl)CCCl)cc2)CC(C)(C)N1[O] (stereo not drawn),IC50,K562,36.3 µM
CCOC(=O)[C@H](Cc1ccc(F)cc1)NC(=O)[C@@H](N)Cc1ccc(N(CCCl)CCCl)cc1 [MELPHALAN FLUFENAMIDE],IC50,Lymphoma cell line [13],0.011 µM
same,Ratio IC50,Lymphoma cell line [14],49
O=C(O)C(Cc1ccc(N(CCCl)CCCl)cc1)NCC(=O)N1CCCC1C(=O)O (stereo not drawn),inhibition at 15 µM,MDA-MB-231 [7],55%
same,inhibition at 15 µM,MDA-MB-231 [15],30%
O=C(O)CN(CCN(CC(=O)O)CC(=O)O)CCN(CC(=O)O)CC(=O)N[C@@H](Cc1ccc(N(CCCl)CCCl)cc1)C(=O)O,tissue uptake at 2 h,[16],1.03 %ID/g
same,Retention_time,[17],10.72 min
C/C1=C\CC[C@@]2(C)O[C@H]2[C@H]2OC(=O)C(CNC(Cc3ccc(N(CCCl)CCCl)cc3)C(=O)O)[C@@H]2CC1 (stereo partly drawn),tissue uptake at 2 h,[16],1.63 %ID/g
same,Retention_time,[17],14.5 min
